This is an account of results in patent publication US12599672B2, “KRAS proteolysis targeting chimeras” (PAQ Therapeutics Inc., priority 2023, dated 2026).

One assay deals with T1, KRAS G12V (Homo sapiens, UniProt P01116, G12V).
T1 construct: SW620-KRAS (G12V)-HiBit-KI cell (Pharmaron); host or cells: SW620-KRAS (G12V)-HiBit-KI cells (HiBiT knock-in at the endogenous KRAS locus)
Put plainly: KRAS G12V HiBit assay. The class given is cell-based. Conditions: SW620-KRAS (G12V)-HiBit-KI cells, compound treatment for 24 hours, class symbols. How it is done: Day 1. […] Rinsed cultivated cells in T-75 flasks with 5 mL PBS (Solarbio, P1020-500). […] Inactivated trypsin by adding excessive serum containing medium. Harvested the cells from flask into cell culture medium and counted the cell number.
Day 2. Test compounds were dissolved at 0.3 mM in DMSO (Solarbio, D8371) as stock solution. […] Performed 3-fold, 10-points dilution via transferring 15 μL compound into 30 μL DMSO by using TECAN liquid handler (TECAN, Freedom EVO200). […] After compound treatment for 24 hours, the plate was removed from incubators and equilibrated at room temperature for 15 minutes. Prepare the HiBit reagent (Promega, N3040) by mixing 10 mL of Nano-Glo®-HiBiT Lytic Buffer with 200 μL of Nano-Glo®-HiBiT Lytic Substrate and 100 μL of LgBiT Protein. Added 20 μL of HiBit reagent into each well of the cell plate and spun the plates at room temperature at 1,000 RPM for 1 minute.
The degradation activity was calculated using the following formula:
[formula] where HC (high control) is obtained from cells treated with 0.1% DMSO only.
A general note: With HiBiT, luminescence reflects the tagged protein that the partner subunit can reach.

For the next assay, the target named is T2, KRAS G12D (Homo sapiens, UniProt P01116, G12D).
T2 construct: AsPc-1-KRAS (G12D)-HiBit-KI cell (Pharmaron); host or cells: AsPc-1-KRAS (G12D)-HiBit-KI cells (HiBiT knock-in at the endogenous KRAS locus)
T2 sequence (P01116 1-188 isoform P01116-2 G12D): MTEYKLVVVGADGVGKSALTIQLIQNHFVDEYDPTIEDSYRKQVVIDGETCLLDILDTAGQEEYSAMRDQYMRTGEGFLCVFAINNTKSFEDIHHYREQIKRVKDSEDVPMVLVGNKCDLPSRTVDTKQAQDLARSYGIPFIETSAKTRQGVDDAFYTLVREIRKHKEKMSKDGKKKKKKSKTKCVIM
The assay can be described thus: KRAS G12D HiBit assay. The class given is cell-based. Conditions: AsPc-1-KRAS (G12D)-HiBit-KI cell, compound treatment for 24 hours; for DC50: absolute DC50. The procedure, abridged:
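Cells were treated for 24 h with compounds in a 3-fold, 10-point dilution series from a 0.3 mM DMSO stock, then equilibrated 15 min at room temperature. KRAS G12D HiBiT levels were read by luminescence after lytic Nano-Glo HiBiT reagent with LgBiT; inhibition calculated relative to 0.1% DMSO high control.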

[1] abbreviates: numeric bounds given in place of class symbols.

T1 sequence (P01116 1-188 isoform P01116-2 G12V): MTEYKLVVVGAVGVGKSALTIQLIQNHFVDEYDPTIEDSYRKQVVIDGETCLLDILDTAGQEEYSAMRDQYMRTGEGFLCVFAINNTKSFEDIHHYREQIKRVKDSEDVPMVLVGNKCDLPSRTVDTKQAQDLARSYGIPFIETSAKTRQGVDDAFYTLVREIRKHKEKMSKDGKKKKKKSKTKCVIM

Regarding `C#Cc1c(F)ccc2cccc(-c3ncc4c(N5CCC[C@@](C)(O)C5)nc(OCC5(CN6CCC(N7CCC(c8ccc9c(C%10CCC(=O)NC%10=O)nn(C)c9c8)CC7)CC6)CC5)nc4c3F)c12` (some centres unmarked) [Compound 57], the DC50 at KRAS G12V is more than 0.1 µM; at KRAS G12D (class symbols), less than 0.1 µM.
As to `C#Cc1c(F)ccc2cc(O)cc(-c3ncc4c(N5CCC[C@@](C)(O)C5)nc(OC[C@@]56CCCN5[C@H](COC(=O)N5CCN(CC#CCOc7cccc8c7n(C)c(=O)n8C7CCC(=O)NC7=O)CC5)CC6)nc4c3F)c12` (stereo partly drawn) [Compound 376, ((3S,7aS)-7a-(((7-(8-ethynyl-7-fluoro-3-hydroxynaphthalen-1-yl)-8-fluoro-4-((R)-3-hydroxy-3-methylpiperidin-1-yl)pyrido[4,3-d]pyrimidin-2-yl)oxy)methyl)hexahydro-1H-pyrrolizin-3-yl)methyl 4-(4-((1-(2,6-dioxopiperidin-3-yl)-3-methyl-2-oxo-2,3-dihydro-1H-benzo[d]imidazol-4-yl)oxy)but-2-yn-1-yl)piperazine-1-carboxylate], the DC50 on KRAS G12V and on KRAS G12D (setting [1]) was more than 0.1 µM throughout.
For the compound `CCc1c(F)ccc2cc(O)cc(-c3ncc4c(N5CCC[C@@](C)(O)C5)nc(OC[C@@]56CCCN5[C@H](COC(=O)N5CCC(C)(CN7CCN(c8ccc9c(c8)n(C)c(=O)n9C8CCC(=O)NC8=O)CC7)CC5)CC6)nc4c3F)c12` (stereo partly drawn) [Compound 502, ((3S,7aS)-7a-(((7-(8-ethyl-7-fluoro-3-hydroxynaphthalen-1-yl)-8-fluoro-4-((R)-3-hydroxy-3-methylpiperidin-1-yl)pyrido[4,3-d]pyrimidin-2-yl)oxy)methyl)hexahydro-1H-pyrrolizin-3-yl)methyl 4-((4-(1-(2,6-dioxopiperidin-3-yl)-3-methyl-2-oxo-2,3-dihydro-1H-benzo[d]imidazol-5-yl)piperazin-1-yl)methyl)-4-methylpiperidine-1-carboxylate], the DC50 is less than 0.01 µM on KRAS G12V and less than 0.1 µM on KRAS G12D (class symbols).
Turning to `C#Cc1c(F)ccc2cc(O)cc(-c3ncc4c(N5CCCCCC5)nc(OCC5(CN6CCN(CC7CCN(c8ccc9c(c8)n(C)c(=O)n9C8CCC(=O)NC8=O)CC7)CC6)CC5)nc4c3F)c12` (centres unmarked) [Compound 16], the DC50 was more than 0.1 µM on KRAS G12V and less than 0.1 µM at KRAS G12D (class symbols). Further, the Dmax at KRAS G12D (class symbols) was more than 50%.
Turning to `CCc1c(F)ccc2cc(O)cc(-c3ncc4c(N5CCC[C@@](C)(O)C5)nc(OC[C@@]56CCCN5[C@H](COC(=O)N5CCC(N7CC8(CCC(c9ccc%10c(c9)n(C)c(=O)n%10C9CCC(=O)NC9=O)CC8)C7)CC5)CC6)nc4c3F)c12` (stereo partly drawn) [Compound 363, ((3S,7aS)-7a-(((7-(8-ethyl-7-fluoro-3-hydroxynaphthalen-1-yl)-8-fluoro-4-((R)-3-hydroxy-3-methylpiperidin-1-yl)pyrido[4,3-d]pyrimidin-2-yl)oxy)methyl)hexahydro-1H-pyrrolizin-3-yl)methyl 4-(7-(1-(2,6-dioxopiperidin-3-yl)-3-methyl-2-oxo-2,3-dihydro-1H-benzo[d]imidazol-5-yl)-2-azaspiro[3.5]nonan-2-yl)piperidine-1-carboxylate], the DC50 on KRAS G12V was less than 0.01 µM; on KRAS G12D (class symbols), less than 0.1 µM.
With `Cn1c(=O)n(C2CCC(=O)NC2=O)c2ccc(C3CCN(CC4CCN(C(=O)CN5CCN(c6nccc(-c7noc([C@@]8(C)CCCc9sc(N)c(C#N)c98)n7)n6)CC5)CC4)CC3)cc21` (some centres unmarked) [Compound 224], the DC50 was more than 0.1 µM on KRAS G12V and more than 0.3 µM at KRAS G12D (class symbols).
As for `CCc1c(F)ccc2cc(O)cc(-c3ncc4c(N5CCC[C@@](C)(O)C5)nc(OC[C@@]56CCCN5[C@H](COC(=O)N5CCC(Oc7ccc(-c8ccc9c(c8)n(C)c(=O)n9C8CCC(=O)NC8=O)cc7)CC5)CC6)nc4c3F)c12` (stereo partly drawn) [Compound 496, ((3S,7aS)-7a-(((7-(8-ethyl-7-fluoro-3-hydroxynaphthalen-1-yl)-8-fluoro-4-((R)-3-hydroxy-3-methylpiperidin-1-yl)pyrido[4,3-d]pyrimidin-2-yl)oxy)methyl)hexahydro-1H-pyrrolizin-3-yl)methyl 4-(4-(1-(2,6-dioxopiperidin-3-yl)-3-methyl-2-oxo-2,3-dihydro-1H-benzo[d]imidazol-5-yl)phenoxy)piperidine-1-carboxylate], the DC50 on KRAS G12V and on KRAS G12D (setting [1]) was more than 0.1 µM throughout.
`CCc1c(F)ccc2cccc(-c3ncc4c(N5CCC[C@@](C)(O)C5)nc(OC[C@@]56CCCN5[C@H](COC(=O)NCCOc5ccc7c(c5)n(C)c(=O)n7C5CCC(=O)NC5=O)CC6)nc4c3F)c12` (stereo partly drawn) [Compound 111, ((3S,7aS)-7a-(((7-(8-ethyl-7-fluoronaphthalen-1-yl)-8-fluoro-4-((R)-3-hydroxy-3-methylpiperidin-1-yl)pyrido[4,3-d]pyrimidin-2-yl)oxy)methyl)hexahydro-1H-pyrrolizin-3-yl)methyl (2-((1-(2,6-dioxopiperidin-3-yl)-3-methyl-2-oxo-2,3-dihydro-1H-benzo[d]imidazol-5-yl)oxy)ethyl) carbamate]: the DC50 at KRAS G12V was more than 0.1 µM; on KRAS G12D (class symbols), more than 0.3 µM.
The corresponding values for `CCc1c(F)ccc2cc(O)cc(-c3ncc4c(N5CCC[C@@H]5CO)nc(OC[C@@]56CCCN5[C@H](COC(=O)N5CCC7(CC5)CC(N5CCC(c8ccc9c(c8)n(C)c(=O)n9C8CCC(=O)NC8=O)CC5)C7)CC6)nc4c3F)c12` (stereo partly drawn) [Compound 352, ((3S,7aS)-7a-(((7-(8-ethyl-7-fluoro-3-hydroxynaphthalen-1-yl)-8-fluoro-4-((R)-2-(hydroxymethyl)pyrrolidin-1-yl)pyrido[4,3-d]pyrimidin-2-yl)oxy)methyl)hexahydro-1H-pyrrolizin-3-yl)methyl 2-(4-(1-(2,6-dioxopiperidin-3-yl)-3-methyl-2-oxo-2,3-dihydro-1H-benzo[d]imidazol-5-yl)piperidin-1-yl)-7-azaspiro[3.5]nonane-7-carboxylate] are less than 0.01 µM and less than 0.1 µM.
The corresponding values for `CCc1c(F)ccc2cc(O)cc(-c3ncc4c(N5CCC[C@H](O)C5)nc(OC[C@@]56CCCN5[C@H](COC(=O)N5CCC7(CC5)CC(N5CCC(c8ccc9c(c8)n(C)c(=O)n9C8CCC(=O)NC8=O)CC5)C7)CC6)nc4c3F)c12` (stereo partly drawn) [Compound 354, ((3S,7aS)-7a-(((7-(8-ethyl-7-fluoro-3-hydroxynaphthalen-1-yl)-8-fluoro-4-((S)-3-hydroxypiperidin-1-yl)pyrido[4,3-d]pyrimidin-2-yl)oxy)methyl)hexahydro-1H-pyrrolizin-3-yl)methyl 2-(4-(1-(2,6-dioxopiperidin-3-yl)-3-methyl-2-oxo-2,3-dihydro-1H-benzo[d]imidazol-5-yl)piperidin-1-yl)-7-azaspiro[3.5]nonane-7-carboxylate] are less than 0.01 µM and less than 0.1 µM.
Consider `CCc1c(F)ccc2cc(O)cc(-c3ncc4c(N5CCC[C@@](C)(O)C5)nc(OC[C@@]56CCCN5[C@H](COC(=O)N5CCC(CN7C8CCC7CC(c7ccc9c(c7)n(C)c(=O)n9C7CCC(=O)NC7=O)C8)CC5)CC6)nc4c3F)c12` (stereo partly drawn) [Compound 393, ((3S,7aS)-7a-(((7-(8-ethyl-7-fluoro-3-hydroxynaphthalen-1-yl)-8-fluoro-4-((R)-3-hydroxy-3-methylpiperidin-1-yl)pyrido[4,3-d]pyrimidin-2-yl)oxy)methyl)hexahydro-1H-pyrrolizin-3-yl)methyl 4-((3-(1-(2,6-dioxopiperidin-3-yl)-3-methyl-2-oxo-2,3-dihydro-1H-benzo[d]imidazol-5-yl)-8-azabicyclo[3.2.1]octan-8-yl)methyl)piperidine-1-carboxylate], for which the values for the DC50 at KRAS G12V and on KRAS G12D (class symbols) were 0.01 to 0.1 µM and less than 0.1 µM, respectively.
At KRAS G12V, `C#Cc1c(F)ccc2cccc(-c3ncc4c(N5CCC[C@@](C)(O)C5)nc(OC[C@@]56CCCN5[C@H](COC(=O)NCCOc5ccc7c(c5)n(C)c(=O)n7C5CCC(=O)NC5=O)CC6)nc4c3F)c12` (stereo partly drawn) [Compound 106, ((3S,7aS)-7a-(((7-(8-ethynyl-7-fluoronaphthalen-1-yl)-8-fluoro-4-((R)-3-hydroxy-3-methylpiperidin-1-yl)pyrido[4,3-d]pyrimidin-2-yl)oxy)methyl)hexahydro-1H-pyrrolizin-3-yl)methyl (2-((1-(2,6-dioxopiperidin-3-yl)-3-methyl-2-oxo-2,3-dihydro-1H-benzo[d]imidazol-5-yl)oxy)ethyl) carbamate] showed a DC50 of more than 0.1 µM. In addition, at KRAS G12D (class symbols), the DC50 is more than 0.3 µM and the Dmax was less than 15%.
